Series [1] in a line: Physical stability of peptide analogues (Thioflavin T fibrillation). The format is physicochemical. The note with it: maximum ThT signal normalized between hAMY maximum and buffer background; 40° C., shaking, four days; pH 7 per table title. The method in brief: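 Peptides in 50 mM sodium acetate pH 4 or 50 mM sodium phosphate pH 7 were preincubated 1 h, mixed with 4 μM ThT, held at 40° C with 700 rpm shaking before each read. Fluorescence (ex 450/em 480 nm) every 10 min for four days; LOESS-smoothed maximum signal normalized in percent between hAMY and buffer.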

In series [2] the target is T1, hAMY3 receptor (Homo sapiens, UniProt O60896+P30988).
T1 sequence (P30988 25-474): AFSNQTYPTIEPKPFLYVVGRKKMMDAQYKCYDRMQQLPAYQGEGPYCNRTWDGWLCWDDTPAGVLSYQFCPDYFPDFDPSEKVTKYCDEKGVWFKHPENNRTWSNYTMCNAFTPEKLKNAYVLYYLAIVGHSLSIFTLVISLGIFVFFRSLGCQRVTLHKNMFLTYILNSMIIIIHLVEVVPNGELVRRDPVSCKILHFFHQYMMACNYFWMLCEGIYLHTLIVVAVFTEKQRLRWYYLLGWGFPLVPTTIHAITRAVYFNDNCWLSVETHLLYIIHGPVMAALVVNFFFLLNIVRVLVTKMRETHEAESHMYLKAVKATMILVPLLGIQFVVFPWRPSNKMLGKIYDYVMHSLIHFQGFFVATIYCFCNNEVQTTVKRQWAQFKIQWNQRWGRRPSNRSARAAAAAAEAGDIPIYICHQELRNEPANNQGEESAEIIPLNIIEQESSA
T1 sequence (O60896 24-148 partner): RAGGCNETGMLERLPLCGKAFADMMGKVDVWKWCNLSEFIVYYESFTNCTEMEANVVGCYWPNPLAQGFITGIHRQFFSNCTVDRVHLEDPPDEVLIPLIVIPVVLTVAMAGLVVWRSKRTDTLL
The experiment in a line: cAMP assay for in vitro receptor activation, hAMY3-R. Type of series: cell-based. The note with it: cAMP assay, hAMY3 receptor; read-out: hAMY3R EC50. The method in brief:
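Accumulated cAMP was detected by time-resolved FRET one hour after reagent addition. Beforehand, hAMY3-R-overexpressing monoclonal cells (2000/well, DPBS, 0.05% casein, 0.5 mM IBMX) received graded doses of compound for 30 min at room temperature; human amylin served as positive control.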
A general note: Changes in cAMP serve as a functional read-out for many G protein-coupled receptors.

The target of series [3] is hAM1 receptor (Homo sapiens, UniProt O60895+Q16602). As to the kind of experiment: cAMP assay for in vitro receptor activation, hAM1-R. Type of series: cell-based. To be noted: cAMP assay, hAM1 receptor; read-out: hAM1R EC50. The method in brief: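 Monoclonal stable hAM1-overexpressing cells, thawed from frozen stock; 8000 cells/well in DPBS + 0.05% casein + 0.5 mM IBMX; read-out cAMP.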
Chain of hAM1 receptor (Q16602 23-461): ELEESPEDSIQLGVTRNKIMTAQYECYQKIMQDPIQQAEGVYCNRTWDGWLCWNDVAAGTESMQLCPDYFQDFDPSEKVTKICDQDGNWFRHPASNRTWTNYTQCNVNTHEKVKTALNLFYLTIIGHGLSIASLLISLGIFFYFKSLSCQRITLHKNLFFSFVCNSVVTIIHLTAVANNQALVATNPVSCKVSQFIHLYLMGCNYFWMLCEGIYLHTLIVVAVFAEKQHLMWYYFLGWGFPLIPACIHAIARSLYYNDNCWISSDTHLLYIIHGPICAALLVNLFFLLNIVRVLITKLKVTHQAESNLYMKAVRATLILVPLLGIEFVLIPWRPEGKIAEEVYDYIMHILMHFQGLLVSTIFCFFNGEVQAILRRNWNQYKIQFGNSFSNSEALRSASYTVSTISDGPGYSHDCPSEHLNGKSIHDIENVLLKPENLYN
Chain of hAM1 receptor (O60895 43-175 partner): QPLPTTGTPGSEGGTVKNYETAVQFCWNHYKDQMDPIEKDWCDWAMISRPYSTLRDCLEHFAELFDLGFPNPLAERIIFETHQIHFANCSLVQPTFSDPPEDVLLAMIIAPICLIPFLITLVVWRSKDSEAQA

Structures are written as SMILES. Bridge positions count the residues as written; N and C are the ends. Square brackets hold non-standard residues; d marks the D form. Peptide text beside a SMILES is read from it. Hyp = O=C(O)[C@@H]1C[C@@H](O)CN1 Some results are limits rather than exact numbers.

For orientation: EC50 means the concentration needed to bring the measured effect to its halfway point.

For the molecule `CC[C@H](C)[C@H](NC(=O)[C@H](CCC(N)=O)NC(=O)[C@H](Cc1c[nH]cn1)NC(=O)[C@H](C)NC(=O)[C@H](CC(C)C)NC(=O)[C@H](Cc1c[nH]c2ccccc12)NC(=O)[C@H](CCC(N)=O)NC(=O)[C@@H](NC(=O)[C@@H](NC(=O)[C@@H]1CSSC[C@H](NC(=O)[C@@H](N)CCCCN)C(=O)N[C@@H](CC(N)=O)C(=O)N[C@@H]([C@@H](C)O)C(=O)N[C@@H](C)C(=O)N[C@@H]([C@@H](C)O)C(=O)N1)[C@@H](C)O)C(C)C)C(=O)N[C@@H](Cc1ccc(O)cc1)C(=O)N[C@@H](CCC(N)=O)C(=O)N[C@@H](Cc1ccccc1)C(=O)N[C@H](C(=O)N[C@@H](CC(=O)O)C(=O)N[C@@H](CCCCN)C(=O)N[C@@H](C)C(=O)N[C@@H](CCCCN)C(=O)N[C@@H](CC(=O)O)C(=O)N[C@@H](CC(N)=O)C(=O)N[C@H](C(=O)N[C@@H](C)C(=O)N1CCC[C@H]1C(=O)N1CCC[C@H]1C(=O)N[C@H](C(=O)N[C@@H](CC(N)=O)C(=O)N[C@H](C(=O)NCC(=O)N[C@@H](CO)C(=O)N[C@@H](CC(N)=O)C(=O)NCC(=O)N1C[C@H](O)C[C@H]1C(N)=O)C(C)C)[C@@H](C)O)C(C)C)[C@@H](C)O` [compound 320] (H-KCNTATCTVQWLAHQIYQFTDKAKDNVAPPTNVGSNG[Hyp]-NH2; disulfide 2-7; N-terminus assumed), the “Max ThT signal (%)” value in series [1] is 11.100%. Moreover, the EC50 in series [2] was 0.009 nM; in series [3] it was over 5000 nM.

On to `CC[C@H](C)[C@H](NC(=O)[C@H](CCC(N)=O)NC(=O)[C@H](Cc1c[nH]cn1)NC(=O)[C@H](C)NC(=O)[C@H](CC(C)C)NC(=O)[C@H](Cc1c[nH]c2ccccc12)NC(=O)[C@H](CCC(N)=O)NC(=O)[C@@H](NC(=O)[C@@H](NC(=O)[C@@H]1CSSC[C@H](NC(=O)CN)C(=O)N[C@@H](CCCNC(=N)N)C(=O)N[C@@H]([C@@H](C)O)C(=O)NCC(=O)N[C@@H]([C@@H](C)O)C(=O)N1)[C@@H](C)O)C(C)C)C(=O)N[C@@H](Cc1ccc(O)cc1)C(=O)N[C@@H](CCC(N)=O)C(=O)N[C@@H](Cc1ccccc1)C(=O)N[C@H](C(=O)N[C@@H](CC(=O)O)C(=O)N[C@@H](CCCCN)C(=O)N[C@@H](CC(=O)O)C(=O)N[C@@H](CCCCN)C(=O)N[C@@H](CC(=O)O)C(=O)N[C@@H](CC(N)=O)C(=O)N[C@H](C(=O)N[C@@H](C)C(=O)N1CCC[C@H]1C(=O)N[C@@H](CCCNC(=N)N)C(=O)N[C@H](C(=O)N[C@@H](CC(N)=O)C(=O)N[C@H](C(=O)NCC(=O)N1CCC[C@H]1C(=O)N[C@@H](CCC(N)=O)C(=O)NCC(=O)N1C[C@H](O)C[C@H]1C(N)=O)C(C)C)[C@@H](C)O)C(C)C)[C@@H](C)O` [compound 323] (H-GCRTGTCTVQWLAHQIYQFTDKDKDNVAPRTNVGPQG[Hyp]-NH2; disulfide 2-7; N-terminus assumed), for which the “Max ThT signal (%)” value in series [1] is 27.500%. Also, the EC50 was 0.014 nM in series [2] and over 5000 nM in series [3].

Turning to `CC[C@H](C)[C@H](NC(=O)[C@H](CCC(N)=O)NC(=O)[C@H](Cc1c[nH]cn1)NC(=O)[C@H](C)NC(=O)[C@H](CC(C)C)NC(=O)[C@H](Cc1c[nH]c2ccccc12)NC(=O)[C@H](CCC(N)=O)NC(=O)[C@@H](NC(=O)[C@@H](NC(=O)[C@@H]1CSSC[C@H](NC(=O)[C@@H](N)CCCCN)C(=O)N[C@@H](CC(N)=O)C(=O)N[C@@H]([C@@H](C)O)C(=O)N[C@@H](C)C(=O)N[C@@H]([C@@H](C)O)C(=O)N1)[C@@H](C)O)C(C)C)C(=O)N[C@@H](Cc1ccc(O)cc1)C(=O)N[C@@H](CCC(N)=O)C(=O)N[C@@H](Cc1ccccc1)C(=O)N[C@H](C(=O)N[C@@H](CC(=O)O)C(=O)N[C@@H](CCCCN)C(=O)N[C@@H](CC(=O)O)C(=O)N[C@@H](CCCCN)C(=O)N[C@@H](CC(=O)O)C(=O)N[C@@H](C)C(=O)N[C@H](C(=O)N[C@@H](C)C(=O)N1CCC[C@H]1C(=O)N1CCC[C@H]1C(=O)N[C@H](C(=O)N[C@@H](CC(N)=O)C(=O)N[C@H](C(=O)NCC(=O)N[C@@H](CO)C(=O)N[C@@H](CC(N)=O)C(=O)NCC(=O)N1C[C@H](O)C[C@H]1C(N)=O)C(C)C)[C@@H](C)O)C(C)C)[C@@H](C)O` [compound 324] (H-KCNTATCTVQWLAHQIYQFTDKDKDAVAPPTNVGSNG[Hyp]-NH2; disulfide 2-7; N-terminus assumed), in series [1], the “Max ThT signal (%)” value was 11.850%. The EC50 in series [2] was 0.028 nM; in series [3], over 5000 nM.

Regarding `CC[C@H](C)[C@H](NC(=O)[C@H](CCC(N)=O)NC(=O)[C@H](Cc1c[nH]cn1)NC(=O)[C@H](C)NC(=O)[C@H](CC(C)C)NC(=O)[C@H](Cc1c[nH]c2ccccc12)NC(=O)[C@H](CCC(N)=O)NC(=O)[C@@H](NC(=O)[C@@H](NC(=O)[C@@H]1CSSC[C@H](NC(=O)[C@@H](N)CCCCN)C(=O)N[C@@H](CC(N)=O)C(=O)N[C@@H]([C@@H](C)O)C(=O)N[C@@H](C)C(=O)N[C@@H]([C@@H](C)O)C(=O)N1)[C@@H](C)O)C(C)C)C(=O)N[C@@H](Cc1ccc(O)cc1)C(=O)N[C@@H](CCC(N)=O)C(=O)N[C@@H](Cc1ccccc1)C(=O)N[C@H](C(=O)N[C@@H](CC(=O)O)C(=O)N[C@@H](CCCCN)C(=O)N[C@@H](CC(=O)O)C(=O)N[C@@H](CCCCN)C(=O)N[C@@H](CC(=O)O)C(=O)N[C@@H](CC(N)=O)C(=O)N[C@H](C(=O)N[C@@H](C)C(=O)N[C@@H](C)C(=O)N1CCC[C@H]1C(=O)N[C@H](C(=O)N[C@@H](CC(N)=O)C(=O)N[C@H](C(=O)NCC(=O)N[C@@H](CO)C(=O)N[C@@H](CC(N)=O)C(=O)NCC(=O)N1C[C@H](O)C[C@H]1C(N)=O)C(C)C)[C@@H](C)O)C(C)C)[C@@H](C)O` [compound 325] (H-KCNTATCTVQWLAHQIYQFTDKDKDNVAAPTNVGSNG[Hyp]-NH2; disulfide 2-7; N-terminus assumed), the “Max ThT signal (%)” value in series [1] is 10.100%. Further, the EC50 in series [2] was 0.025 nM; in series [3], over 5000 nM.

Take `CC(C)C[C@H](NC(=O)[C@H](Cc1c[nH]c2ccccc12)NC(=O)[C@H](CCC(N)=O)NC(=O)[C@@H](NC(=O)[C@@H](NC(=O)[C@@H]1CSSC[C@H](NC(=O)CN)C(=O)N[C@@H](CCCNC(=N)N)C(=O)N[C@@H](Cc2ccccc2)C(=O)NCC(=O)N[C@@H]([C@@H](C)O)C(=O)N1)[C@@H](C)O)C(C)C)C(=O)N[C@@H](C)C(=O)N[C@@H](Cc1c[nH]cn1)C(=O)N[C@@H](Cc1ccccc1)C(=O)N[C@@H](CC(C)C)C(=O)N[C@@H](Cc1ccc(O)cc1)C(=O)N[C@@H](CCC(N)=O)C(=O)N[C@@H](Cc1ccccc1)C(=O)N[C@H](C(=O)N[C@@H](CC(=O)O)C(=O)N[C@@H](CCCCN)C(=O)N[C@@H](CC(=O)O)C(=O)N[C@@H](CCCCN)C(=O)N[C@@H](CC(=O)O)C(=O)N[C@@H](CC(N)=O)C(=O)N[C@H](C(=O)N[C@@H](C)C(=O)N1CCC[C@H]1C(=O)N[C@@H](CCCNC(=N)N)C(=O)N[C@H](C(=O)N[C@@H](CC(N)=O)C(=O)N[C@H](C(=O)NCC(=O)N1CCC[C@H]1C(=O)N[C@@H](CCC(N)=O)C(=O)NCC(=O)N[C@@H](Cc1ccc(O)cc1)C(N)=O)C(C)C)[C@@H](C)O)C(C)C)[C@@H](C)O` [compound 326] (H-GCRFGTCTVQWLAHFLYQFTDKDKDNVAPRTNVGPQGY-NH2; disulfide 2-7; N-terminus assumed): in series [1], the “Max ThT signal (%)” value was 2.350%. Further, the concentration for a half-maximal effect (EC50) was 0.053 nM in series [2] and over 5000 nM in series [3].

`CC(C)C[C@H](NC(=O)[C@H](Cc1c[nH]c2ccccc12)NC(=O)[C@H](CCC(N)=O)NC(=O)[C@@H](NC(=O)[C@@H](NC(=O)[C@@H]1CSSC[C@H](NC(=O)CN)C(=O)N[C@@H](CCCNC(=N)N)C(=O)N[C@@H](Cc2ccccc2)C(=O)NCC(=O)N[C@@H]([C@@H](C)O)C(=O)N1)[C@@H](C)O)C(C)C)C(=O)N[C@@H](C)C(=O)N[C@@H](Cc1c[nH]cn1)C(=O)N[C@@H](Cc1ccccc1)C(=O)N[C@@H](CC(C)C)C(=O)N[C@@H](Cc1ccc(O)cc1)C(=O)N[C@@H](CCC(N)=O)C(=O)N[C@@H](Cc1ccccc1)C(=O)N[C@H](C(=O)N[C@@H](CC(=O)O)C(=O)N[C@@H](CCCCN)C(=O)N[C@@H](CC(=O)O)C(=O)N[C@@H](CCCCN)C(=O)N[C@@H](CC(=O)O)C(=O)N[C@@H](CC(N)=O)C(=O)N[C@H](C(=O)N[C@@H](C)C(=O)N1CCC[C@H]1C(=O)N[C@@H](CCCNC(=N)N)C(=O)N[C@H](C(=O)N[C@@H](CC(N)=O)C(=O)N[C@H](C(=O)NCC(=O)N[C@@H](CO)C(=O)N[C@@H](CC(N)=O)C(=O)N[C@H](C(=O)N[C@@H](Cc1ccc(O)cc1)C(N)=O)[C@@H](C)O)C(C)C)[C@@H](C)O)C(C)C)[C@@H](C)O` [compound 327] (H-GCRFGTCTVQWLAHFLYQFTDKDKDNVAPRTNVGSNTY-NH2; disulfide 2-7; N-terminus assumed): in series [1], the “Max ThT signal (%)” value is on record as 3.600%. The results for the EC50 in series [2] and in series [3] were 0.09 nM and over 5000 nM, respectively.

The record behind these values is patent US12139520B2 (priority 2020, dated 2024).
